In test [1] the target is Beta-1 adrenergic receptor (Homo sapiens, UniProt P08588). The test can be described thus: Inhibition of Adrenergic beta1 at compound concentration of 10.0 uM in the Eurofins-Panlabs radioligand binding assay (Eurofins_assay_204010). Set-up: ligand concentration 0.03 nM, non-specific ligand with concentration 100 uM S(-)-Propranolol, incubation time 2 h, incubation temperature 25 C.

For test [2], the species on record is Rattus norvegicus. The test can be described thus: Inhibition of Glutamate, NMDA, Phencyclidine at 10 µM in the Eurofins-Panlabs radioligand binding assay (Eurofins_assay_233000). The format is protein-complex assay. Conditions: Compound concentration 10.0 uM.
The species named for test [3] is Homo sapiens. The test can be described thus: Inhibition of Nicotinic Acetylcholine at compound concentration of 10.0 uM in the Eurofins-Panlabs radioligand binding assay (Eurofins_assay_258590). It is filed as protein-complex assay. To be noted: Compound concentration 10.0 uM.
For test [4], the target named is Phosphodiesterase 3 (Homo sapiens) (UniProt Q14432+Q13370). The test can be described thus: Inhibition of Phosphodiesterase PDE3 at compound concentration of 10.0 uM in the Eurofins-Panlabs enzyme assay (Eurofins_assay_152000). Details: substrate with concentration 1.01 uM [3H] cAMP + cAMP, incubation time 20 min, incubation temperature 25 C. The format is protein assay. Conditions: Compound concentration 10.0 uM.

Test [5] deals with T1, Alpha-2B adrenergic receptor (Homo sapiens, UniProt P18089).
T1 sequence (P18089 whole entry): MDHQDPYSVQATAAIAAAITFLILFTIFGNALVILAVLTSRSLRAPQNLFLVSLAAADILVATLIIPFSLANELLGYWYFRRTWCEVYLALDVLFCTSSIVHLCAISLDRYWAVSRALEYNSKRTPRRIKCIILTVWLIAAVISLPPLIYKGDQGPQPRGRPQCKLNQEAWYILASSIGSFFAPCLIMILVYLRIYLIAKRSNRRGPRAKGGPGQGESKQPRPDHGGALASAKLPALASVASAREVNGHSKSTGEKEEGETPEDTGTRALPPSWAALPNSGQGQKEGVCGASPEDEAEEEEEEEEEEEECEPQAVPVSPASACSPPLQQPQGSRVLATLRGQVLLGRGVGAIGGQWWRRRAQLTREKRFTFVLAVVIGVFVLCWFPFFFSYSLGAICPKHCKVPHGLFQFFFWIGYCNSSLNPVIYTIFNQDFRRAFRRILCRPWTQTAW
The test can be described thus: Inhibition of Adrenergic alpha2B at compound concentration of 10.0 uM in the Eurofins-Panlabs radioligand binding assay (Eurofins_assay_203710). Set-up: ligand concentration 2.5 nM, non-specific ligand with concentration 10 uM Prazosin, incubation time 60 min, incubation temperature 25 C.

Test [6] concerns the target Cholecystokinin receptor type A (Homo sapiens) (UniProt P32238). The experiment in a line: Inhibition of Cholecystokinin CCK1 (CCKA) at 10 µM in the Eurofins-Panlabs radioligand binding assay (Eurofins_assay_218020). To be noted: Compound concentration 10.0 uM.
Test [7] is filed under the species Rattus norvegicus. The experiment in a line: GABAA, Ro-15-1788, Hippocampus Eurofins-Panlabs radioligand binding assay. Set-up: ligand concentration 1 nM. To be noted: Compound concentration 10.0 uM.
Test [8] has as its target T1, Alpha-2B adrenergic receptor. The experiment in a line: Panlabs assay (ADRA2B). Details: compound concentration 10 uM.
The target in test [9] is Adenosine receptor A1 (Homo sapiens) (UniProt P30542). Conditions: Compound concentration 10.0 uM.
In test [10] the target is D(2) dopamine receptor (Homo sapiens) (UniProt P14416). Conditions: Compound concentration 10.0 uM.
The target in test [11] is T2, Muscarinic acetylcholine receptor M1 (Homo sapiens) (UniProt P11229).
T2 sequence (whole entry): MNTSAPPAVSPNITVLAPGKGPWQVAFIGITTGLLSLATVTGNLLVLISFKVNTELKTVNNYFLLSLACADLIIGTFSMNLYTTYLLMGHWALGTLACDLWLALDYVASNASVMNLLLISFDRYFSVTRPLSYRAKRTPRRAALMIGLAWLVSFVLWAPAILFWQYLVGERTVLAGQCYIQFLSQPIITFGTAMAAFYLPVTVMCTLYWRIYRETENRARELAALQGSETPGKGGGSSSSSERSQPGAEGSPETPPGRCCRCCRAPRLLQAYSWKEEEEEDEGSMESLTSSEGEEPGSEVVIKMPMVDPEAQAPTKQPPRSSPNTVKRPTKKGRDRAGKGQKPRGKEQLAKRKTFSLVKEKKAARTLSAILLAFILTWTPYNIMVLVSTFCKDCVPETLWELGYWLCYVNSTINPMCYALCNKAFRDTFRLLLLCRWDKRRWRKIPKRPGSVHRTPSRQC
Conditions: Compound concentration 10.0 uM.

Test [12] concerns the target T3, Muscarinic acetylcholine receptor M2 (Homo sapiens) (UniProt P08172).
T3 sequence (whole entry): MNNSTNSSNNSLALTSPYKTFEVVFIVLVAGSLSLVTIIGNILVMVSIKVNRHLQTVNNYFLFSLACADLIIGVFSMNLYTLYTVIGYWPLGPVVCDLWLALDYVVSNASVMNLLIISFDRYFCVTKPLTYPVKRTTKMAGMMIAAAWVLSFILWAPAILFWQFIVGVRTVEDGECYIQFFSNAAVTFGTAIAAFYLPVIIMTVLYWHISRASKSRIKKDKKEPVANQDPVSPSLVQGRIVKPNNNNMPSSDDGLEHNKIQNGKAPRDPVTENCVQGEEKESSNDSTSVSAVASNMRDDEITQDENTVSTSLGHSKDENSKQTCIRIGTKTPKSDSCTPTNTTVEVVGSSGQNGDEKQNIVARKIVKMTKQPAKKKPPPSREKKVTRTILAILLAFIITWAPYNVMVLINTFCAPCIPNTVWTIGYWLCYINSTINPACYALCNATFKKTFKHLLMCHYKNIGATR
To be noted: Compound concentration 10.0 uM.

For test [13], the target named is GABA-A receptor; anion channel (Rattus norvegicus) (UniProt O09028+P15431+P18506+P18508+P19969+P20236+P23574+P23576+P28471+P28473+P30191+P62813+P63079+P63138+Q91ZM7+Q9ES14). Conditions: Compound concentration 10.0 uM.
The target in test [14] is T4, 5-hydroxytryptamine receptor 2C (Homo sapiens) (UniProt P28335).
T4 sequence (whole entry): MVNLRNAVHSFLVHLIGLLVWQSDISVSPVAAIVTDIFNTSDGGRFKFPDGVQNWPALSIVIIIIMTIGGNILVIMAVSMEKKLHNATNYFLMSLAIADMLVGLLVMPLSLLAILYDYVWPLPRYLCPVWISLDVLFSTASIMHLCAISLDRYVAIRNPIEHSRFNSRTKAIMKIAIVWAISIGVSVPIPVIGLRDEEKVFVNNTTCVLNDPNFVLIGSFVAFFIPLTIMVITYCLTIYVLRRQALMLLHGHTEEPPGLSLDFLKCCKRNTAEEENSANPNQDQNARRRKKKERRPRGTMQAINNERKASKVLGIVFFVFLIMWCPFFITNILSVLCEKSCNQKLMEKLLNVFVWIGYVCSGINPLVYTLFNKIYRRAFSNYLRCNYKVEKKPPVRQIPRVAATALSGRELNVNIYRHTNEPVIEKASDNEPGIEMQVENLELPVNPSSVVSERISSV
To be noted: Compound concentration 10.0 uM.

Test [15] deals with Cytochrome P450 11B2, mitochondrial (Homo sapiens, UniProt P19099). The experiment in a line: Assay using V79 cell lines (CYP11B2). It is filed as cell-based.
Test [16] addresses Cytochrome P450 11B1, mitochondrial (Homo sapiens, UniProt P15538). The experiment in a line: Assay using V79 cell lines (CYP11B1). It is filed as cell-based.
For test [17], the target named is Sodium-dependent serotonin transporter (Homo sapiens) (UniProt P31645). To be noted: Compound concentration 10.0 uM.

The source of these data is ChEMBL document CHEMBL4507294, “Data for DCP probe MSD-CYP11B2” (2021).

Broadly, the IC50 is the concentration that gives 50% inhibition. The Ki is the dissociation constant of the complex between target and ligand, obtained from inhibition or displacement. Lower therefore signals a stronger hold on the target. Broadly, the inhibition is the drop in the measured response relative to a control, in per cent.

Molecules are shown by their SMILES. Calls of active or inactive are those of the source. No cut-off for these calls is given here.

Sequence of Beta-1 adrenergic receptor (P08588 whole entry): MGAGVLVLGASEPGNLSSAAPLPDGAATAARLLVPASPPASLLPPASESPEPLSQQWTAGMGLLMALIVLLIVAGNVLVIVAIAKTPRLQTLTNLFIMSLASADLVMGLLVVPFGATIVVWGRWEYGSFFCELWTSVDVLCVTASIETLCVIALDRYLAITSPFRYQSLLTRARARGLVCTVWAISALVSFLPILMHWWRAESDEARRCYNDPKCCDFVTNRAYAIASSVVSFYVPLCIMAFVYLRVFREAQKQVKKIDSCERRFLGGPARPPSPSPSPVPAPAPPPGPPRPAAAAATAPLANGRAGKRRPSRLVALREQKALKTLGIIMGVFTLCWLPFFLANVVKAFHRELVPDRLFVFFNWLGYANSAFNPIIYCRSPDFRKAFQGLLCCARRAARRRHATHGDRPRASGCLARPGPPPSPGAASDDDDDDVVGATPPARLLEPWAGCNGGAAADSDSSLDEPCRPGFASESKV
Sequence of Sodium-dependent serotonin transporter (Homo sapiens) (P31645 whole entry, looked up): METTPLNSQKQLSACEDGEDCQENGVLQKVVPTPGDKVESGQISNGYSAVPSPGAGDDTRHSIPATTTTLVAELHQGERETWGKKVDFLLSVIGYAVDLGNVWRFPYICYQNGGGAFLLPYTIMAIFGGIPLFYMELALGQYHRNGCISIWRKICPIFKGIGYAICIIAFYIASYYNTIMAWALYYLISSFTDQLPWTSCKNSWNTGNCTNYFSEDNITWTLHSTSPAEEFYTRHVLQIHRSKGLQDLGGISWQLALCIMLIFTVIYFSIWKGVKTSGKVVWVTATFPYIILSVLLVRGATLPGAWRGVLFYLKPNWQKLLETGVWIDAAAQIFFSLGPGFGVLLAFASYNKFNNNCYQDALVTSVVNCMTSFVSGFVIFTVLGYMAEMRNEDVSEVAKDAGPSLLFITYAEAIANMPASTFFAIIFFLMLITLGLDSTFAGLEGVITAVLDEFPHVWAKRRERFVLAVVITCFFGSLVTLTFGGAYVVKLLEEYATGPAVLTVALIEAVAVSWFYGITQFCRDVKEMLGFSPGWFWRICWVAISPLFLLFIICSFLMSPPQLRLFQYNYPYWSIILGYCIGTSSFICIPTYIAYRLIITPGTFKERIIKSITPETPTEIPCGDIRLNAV
Sequence of Cytochrome P450 11B2, mitochondrial (P19099 whole entry): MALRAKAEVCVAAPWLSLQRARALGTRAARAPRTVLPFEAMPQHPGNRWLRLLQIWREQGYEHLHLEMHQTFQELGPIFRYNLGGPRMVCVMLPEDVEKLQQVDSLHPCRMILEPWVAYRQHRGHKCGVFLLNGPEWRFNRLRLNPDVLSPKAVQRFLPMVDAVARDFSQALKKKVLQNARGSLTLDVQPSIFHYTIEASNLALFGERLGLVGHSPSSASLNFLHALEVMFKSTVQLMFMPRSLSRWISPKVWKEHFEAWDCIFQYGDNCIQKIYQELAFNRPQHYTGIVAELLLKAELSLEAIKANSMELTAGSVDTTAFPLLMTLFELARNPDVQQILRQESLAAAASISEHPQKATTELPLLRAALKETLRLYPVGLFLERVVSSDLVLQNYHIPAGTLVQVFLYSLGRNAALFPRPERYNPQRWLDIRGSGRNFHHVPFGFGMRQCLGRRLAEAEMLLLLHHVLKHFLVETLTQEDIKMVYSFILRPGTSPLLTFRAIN
Sequence of Cholecystokinin receptor type A (Homo sapiens) (P32238 whole entry): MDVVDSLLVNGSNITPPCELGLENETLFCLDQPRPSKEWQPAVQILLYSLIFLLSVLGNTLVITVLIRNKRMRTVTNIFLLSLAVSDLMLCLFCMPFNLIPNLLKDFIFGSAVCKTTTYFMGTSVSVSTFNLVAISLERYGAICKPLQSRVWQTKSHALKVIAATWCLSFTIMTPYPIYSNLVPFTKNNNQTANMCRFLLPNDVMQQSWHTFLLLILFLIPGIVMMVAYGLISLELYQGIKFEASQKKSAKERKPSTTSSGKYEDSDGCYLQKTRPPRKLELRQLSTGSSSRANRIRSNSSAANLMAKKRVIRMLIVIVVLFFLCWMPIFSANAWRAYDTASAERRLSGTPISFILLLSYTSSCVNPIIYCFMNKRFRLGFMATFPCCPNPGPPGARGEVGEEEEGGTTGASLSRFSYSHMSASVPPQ
Sequence of Adenosine receptor A1 (Homo sapiens) (P30542 whole entry): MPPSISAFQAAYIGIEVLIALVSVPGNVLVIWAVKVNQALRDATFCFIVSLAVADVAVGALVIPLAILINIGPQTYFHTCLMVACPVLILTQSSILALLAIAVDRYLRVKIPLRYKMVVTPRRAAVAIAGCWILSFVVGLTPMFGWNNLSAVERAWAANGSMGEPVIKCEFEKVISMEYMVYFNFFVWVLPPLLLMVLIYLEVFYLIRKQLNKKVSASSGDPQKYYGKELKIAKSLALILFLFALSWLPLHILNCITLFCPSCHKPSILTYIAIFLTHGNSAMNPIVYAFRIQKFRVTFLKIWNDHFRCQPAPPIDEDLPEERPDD
Sequence of Cytochrome P450 11B1, mitochondrial (P15538 whole entry): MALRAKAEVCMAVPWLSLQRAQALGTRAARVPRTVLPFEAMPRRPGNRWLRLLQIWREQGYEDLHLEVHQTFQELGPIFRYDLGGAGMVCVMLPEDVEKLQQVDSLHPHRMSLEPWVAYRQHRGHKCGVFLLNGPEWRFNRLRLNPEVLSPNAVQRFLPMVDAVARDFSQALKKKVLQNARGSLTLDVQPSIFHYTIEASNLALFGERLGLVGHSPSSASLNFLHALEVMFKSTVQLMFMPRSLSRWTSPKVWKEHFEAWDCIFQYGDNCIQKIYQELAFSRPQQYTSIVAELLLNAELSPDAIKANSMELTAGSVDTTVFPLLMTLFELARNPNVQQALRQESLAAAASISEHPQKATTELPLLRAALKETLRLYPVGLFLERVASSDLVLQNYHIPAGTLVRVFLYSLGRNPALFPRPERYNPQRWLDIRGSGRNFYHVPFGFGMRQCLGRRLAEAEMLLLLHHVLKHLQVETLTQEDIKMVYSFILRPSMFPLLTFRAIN
Sequence of D(2) dopamine receptor (Homo sapiens) (P14416 whole entry): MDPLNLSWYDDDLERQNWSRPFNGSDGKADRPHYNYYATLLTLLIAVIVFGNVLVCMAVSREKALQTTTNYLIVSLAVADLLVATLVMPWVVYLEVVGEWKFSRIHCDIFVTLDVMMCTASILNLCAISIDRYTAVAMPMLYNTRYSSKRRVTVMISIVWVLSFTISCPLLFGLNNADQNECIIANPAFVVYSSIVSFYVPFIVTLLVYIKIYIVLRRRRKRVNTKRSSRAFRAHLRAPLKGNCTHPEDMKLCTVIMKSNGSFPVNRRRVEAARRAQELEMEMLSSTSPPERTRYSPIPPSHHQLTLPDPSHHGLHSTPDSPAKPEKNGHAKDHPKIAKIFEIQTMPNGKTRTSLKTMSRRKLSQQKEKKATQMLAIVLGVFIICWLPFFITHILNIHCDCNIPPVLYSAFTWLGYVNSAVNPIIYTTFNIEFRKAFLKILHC

For the molecule `CC(C)(O)c1cncc(-c2nc3ccc(F)cc3n2C2CC2)c1` [MSD-CYP11B2], the results for the IC50 in test [1], in [5] and in test [8] were 9.62 µM, 4.7 µM and 4.7 µM (active), respectively. The Ki in [1] came to 5.55 µM; in [5], 2150 nM. Also, the inhibition in test [2] is 3%; in [3], -3%; in [4] it was 10%; in test [6], 4%; in test [7], 12%; in test [9] it was 20%. In addition, the inhibition in [10] is -4%; in test [11], -4%; in [12], 6%; in test [13], 16%; in [14], 11%.
As for `FC(F)(F)c1ccc2c(c1)nc(-c1cccnc1)n2C1CC1` [MSD-CYP11B2-Negative-control], the IC50 in test [15] and in test [16] was > 10 µM (not active) in each case. Besides, in [17], the inhibition is -5.44%.
